# Measured values reported in patent publication US8575158B2, “1-phenyl-substituted heterocyclyl derivatives and their use as prostaglandin D2 receptor modulators” (Actelion Pharmaceuticals Ltd., priority 2010, dated 2013).
# Target: T1, hCRTH2 receptor (Homo sapiens, UniProt Q9Y5Y4)
# T1 construct: expressed in transfected cells; host or cells: HEK293
# T1 sequence (Q9Y5Y4 1-395): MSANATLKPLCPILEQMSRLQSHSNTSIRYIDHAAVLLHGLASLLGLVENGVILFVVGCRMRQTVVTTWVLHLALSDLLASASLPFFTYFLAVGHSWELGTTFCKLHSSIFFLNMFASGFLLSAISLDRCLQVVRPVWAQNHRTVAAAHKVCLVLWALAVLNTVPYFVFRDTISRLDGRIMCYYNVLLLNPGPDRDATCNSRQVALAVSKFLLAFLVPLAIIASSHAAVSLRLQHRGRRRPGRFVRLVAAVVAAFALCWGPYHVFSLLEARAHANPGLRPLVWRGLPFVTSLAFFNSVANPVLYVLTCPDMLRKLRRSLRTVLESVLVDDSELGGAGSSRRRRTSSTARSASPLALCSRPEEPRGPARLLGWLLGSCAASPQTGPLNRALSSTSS
# Assay: Radioligand displacement assay (3H-PGD2) on hCRTH2 receptor membranes
# Format: binding
# Settings: antagonistic activity
# [1] = 3H-PGD2 displacement on HEK293-hCRTH2 membrane fragments
# [2] = 3H-PGD2 radioligand displacement, HEK293-hCRTH2 membranes
smiles,measurement,setting,value
"COc1ccccc1CCC(=O)N1CCc2ccccc2C1c1cc(F)ccc1OCC(=O)O (racemic) [Example 128, (±)-(4-Fluoro-2-{2-[3-(2-methoxy-phenyl)-propionyl]-1,2,3,4-tetrahydro-isoquinolin-1-yl}-phenoxy)-acetic acid]",IC50,[1],69 nM
"O=C(O)COc1ccc(Cl)cc1C1c2ccccc2CCN1C(=O)[C@@H]1C[C@H]1c1cccc(Cl)c1 (single isomer, unassigned; diastereoisomer 2) [Example 152, (±)-(4-Chloro-2-{2-[(trans)-2-(3-chloro-phenyl)-cyclopropanecarbonyl]-1,2,3,4-tetrahydro-isoquinolin-1-yl}-phenoxy)-acetic acid (diastereoisomer 2)]",IC50,[1],33.4 nM
"O=C(O)COc1ccc(Cl)cc1C1c2ccccc2CCN1C(=O)CCCc1ccccc1 (racemic) [Example 107, (±)-{4-Chloro-2-[2-(4-phenyl-butyryl)-1,2,3,4-tetrahydro-isoquinolin-1-yl]-phenoxy}-acetic acid]",IC50,[1],20.6 nM
"Cc1csc(COC(=O)N2CCc3c(ccc(F)c3F)[C@H]2c2cc(Cl)ccc2OCC(=O)O)n1 [Example 302, (S)-1-(2-Carboxymethoxy-5-chloro-phenyl)-5,6-difluoro-3,4-dihydro-1H-isoquinoline-2-carboxylic acid 4-methyl-thiazol-2-ylmethyl ester]",IC50,[2],5.7 nM
O=C(O)COc1ccc(Cl)cc1C1c2ccccc2CN1C(=O)NCCc1ccccc1 (racemic) [Example 556],IC50,[2],11.7 nM
"C[C@@H](Oc1ccc(F)cc1[C@@H]1c2ccccc2CCN1C(=O)OCc1ccccc1)C(=O)O [Example 27, (S)-1-[2-((R)-1-Carboxy-ethoxy)-5-fluoro-phenyl]-3,4-dihydro-1H-isoquinoline-2-carboxylic acid benzyl ester]",IC50,[1],12.1 nM
"O=C(O)COc1ccc(Cl)cc1C1c2ccccc2CCN1C(=O)OCCc1ccccc1Cl (racemic) [Example 176, (±)-1-(2-Carboxymethoxy-5-chloro-phenyl)-3,4-dihydro-1H-isoquinoline-2-carboxylic acid 2-(2-chloro-phenyl)-ethyl ester]",IC50,[1],10.4 nM
"COc1cccc2c1CCN(C(=O)OCc1ccccc1)C2c1cc(F)ccc1OCC(=O)O (racemic) [Example 35, (±)-1-(2-Carboxymethoxy-5-fluoro-phenyl)-5-methoxy-3,4-dihydro-1H-isoquinoline-2-carboxylic acid benzyl ester]",IC50,[1],19.7 nM
"Cc1ccccc1[C@@H]1C[C@H]1C(=O)N1CCc2ccccc2[C@H]1c1cc(Cl)ccc1OCC(=O)O [Example 560, {4-Chloro-2-[(S)-2-((1R,2R)-2-o-tolyl-cyclopropanecarbonyl)-1,2,3,4-tetrahydro-isoquinolin-1-yl]-phenoxy}-acetic acid]",IC50,[2],3.27 nM
"O=C(O)COc1ccc(Cl)cc1C1c2cccc(F)c2CCN1C(=O)COCc1ccccc1 (racemic) [Example 119, (±)-{2-[2-(2-Benzyloxy-acetyl)-5-fluoro-1,2,3,4-tetrahydro-isoquinolin-1-yl]-4-chloro-phenoxy}-acetic acid]",IC50,[1],30.9 nM
O=C(O)COc1ccc(Cl)cc1C1c2ccccc2CCN1C(=O)[C@@H]1C[C@H]1c1cccc(Cl)c1 (mixture of isomers) [Example 421],IC50,[2],24 nM
O=C(O)COc1ccc(Cl)cc1C1c2ccccc2CN1C(=O)CCn1ncc2ccccc21 (racemic) [Example 516],IC50,[2],12.5 nM
"Cc1ccccc1CCC(=O)N1CCc2ccccc2C1c1cc(F)ccc1OCC(=O)O (racemic) [Example 134, (±)-{4-Fluoro-2-[2-(3-o-tolyl-propionyl)-1,2,3,4-tetrahydro-isoquinolin-1-yl]-phenoxy}-acetic acid]",IC50,[1],31 nM
"COc1ccc2c(CC(=O)N3CCc4ccccc4C3c3cc(Cl)ccc3OCC(=O)O)coc2c1 (racemic) [Example 92, (±)-(4-Chloro-2-{2-[2-(6-methoxy-benzofuran-3-yl)-acetyl]-1,2,3,4-tetrahydro-isoquinolin-1-yl}-phenoxy)-acetic acid]",IC50,[1],2.86 nM
"Cc1cc(COC(=O)N2CCc3ccccc3[C@H]2c2cc(Cl)ccc2OCC(=O)O)n(C)n1 [Example 288, (S)-1-(2-Carboxymethoxy-5-chloro-phenyl)-3,4-dihydro-1H-isoquinoline-2-carboxylic acid 2,5-dimethyl-2H-pyrazol-3-ylmethyl ester]",IC50,[2],0.41 nM
Cc1nn(CCC(=O)N2CCc3cc(F)ccc3[C@H]2c2cc(Cl)ccc2OCC(=O)O)c2c(F)cccc12 [Example 392],IC50,[2],273 nM
"O=C(O)COc1ccc(F)cc1C1c2cc(Br)ccc2CCN1C(=O)OCc1ccccc1 (racemic) [Example 5, (±)-7-Bromo-1-(2-carboxymethoxy-5-fluoro-phenyl)-3,4-dihydro-1H-isoquinoline-2-carboxylic acid benzyl ester]",IC50,[1],81.2 nM
O=C(O)COc1ccc(F)cc1C1c2ccccc2CCN1C(=O)CCOc1ccccc1F (racemic) [Example 54],IC50,[1],32.2 nM
"Cc1cc(COC(=O)N2CCc3c(ccc(F)c3F)[C@H]2c2cc(Cl)ccc2OCC(=O)O)n(C)n1 [Example 313, (S)-1-(2-Carboxymethoxy-5-chloro-phenyl)-5,6-difluoro-3,4-dihydro-1H-isoquinoline-2-carboxylic acid 2,5-dimethyl-2H-pyrazol-3-ylmethyl ester]",IC50,[2],2.37 nM
"COc1ccccc1COCC(=O)N1CCc2ccccc2C1c1cc(F)ccc1OCC(=O)O (racemic) [Example 198, (±)-(4-Fluoro-2-{2-[2-(2-methoxy-benzyloxy)-acetyl]-1,2,3,4-tetrahydro-isoquinolin-1-yl}-phenoxy)-acetic acid]",IC50,[1],19 nM
"O=C(O)CCCOc1ccc(F)cc1C1c2ccccc2CCN1C(=O)OCc1ccccc1 (racemic) [Example 217, (±)-1-[2-(3-Carboxy-propoxy)-5-fluoro-phenyl]-3,4-dihydro-1H-isoquinoline-2-carboxylic acid benzyl ester]",IC50,[1],110 nM
COc1ccccc1COC(=O)N1CCc2ccccc2C1c1cc(Cl)ccc1OCC(=O)O (racemic) [Example 233],IC50,[1],4.55 nM
"Cc1ncc(COC(=O)N2CCc3c(ccc(F)c3F)[C@H]2c2cc(Cl)ccc2OCC(=O)O)s1 [Example 303, (S)-1-(2-Carboxymethoxy-5-chloro-phenyl)-5,6-difluoro-3,4-dihydro-1H-isoquinoline-2-carboxylic acid 2-methyl-thiazol-5-ylmethyl ester]",IC50,[2],5.05 nM
"O=C(O)COc1ccc(Cl)cc1C1c2ccccc2CCN1C(=O)CCOc1ccc(Cl)cc1 (racemic) [Example 89, (±)-(4-Chloro-2-{2-[3-(4-chloro-phenoxy)-propionyl]-1,2,3,4-tetrahydro-isoquinolin-1-yl}-phenoxy)-acetic acid]",IC50,[1],37.9 nM
O=C(O)COc1ccc(Cl)cc1C1c2ccccc2CCN1C(=O)OCC1CCCC1 (racemic) [Example 264],IC50,[1],13.1 nM
O=C(O)COc1ccc(F)cc1C1c2ccccc2CCN1C(=O)COCc1ccccc1Cl (racemic) [Example 150],IC50,[1],6.16 nM
"Cc1nn(CCC(=O)N2Cc3ccccc3C2c2cc(Cl)ccc2OCC(=O)O)c2ccccc12 (single isomer, unassigned) [Example 545, (4-Chloro-2-{2-[3-(3-methyl-indazol-1-yl)-propionyl]-2,3-dihydro-1H-isoindol-1-yl}-phenoxy)-acetic acid]",IC50,[2],982 nM
"O=C(O)COc1ccc(Cl)cc1[C@@H]1c2ccc(F)c(F)c2CCN1C(=O)OCCc1ccccc1 [Example 310, (S)-1-(2-Carboxymethoxy-5-chloro-phenyl)-5,6-difluoro-3,4-dihydro-1H-isoquinoline-2-carboxylic acid phenethyl ester]",IC50,[2],5.14 nM
O=C(O)COc1ccc(Cl)cc1C1c2ccccc2CCN1C(=O)[C@@H]1C[C@H]1c1cccc(C(F)(F)F)c1 (mixture of isomers) [Example 426],IC50,[2],93.8 nM
"O=C(O)COc1ccc(Cl)cc1[C@@H]1c2ccccc2CCN1C(=O)OCc1nc2ccccc2o1 [Example 295, (S)-1-(2-Carboxymethoxy-5-chloro-phenyl)-3,4-dihydro-1H-isoquinoline-2-carboxylic acid benzooxazol-2-ylmethyl ester]",IC50,[2],7.41 nM
"O=C(OCc1ccccc1)N1CCc2ccccc2[C@H]1c1cc(Cl)ccc1OCc1n[nH]c(=O)o1 [Example 571, (S)-1-[5-Chloro-2-(5-oxo-4,5-dihydro-[1,3,4]oxadiazol-2-ylmethoxy)-phenyl]-3,4-dihydro-1H-isoquinoline-2-carboxylic acid benzyl ester]",IC50,"radioligand displacement (3H-PGD2), hCRTH2 receptor membranes",55 nM
"O=C(O)COc1ccc(Cl)cc1[C@@H]1c2ccc(F)c(F)c2CCN1C(=O)OCc1nc2ccccc2o1 [Example 320, (S)-1-(2-Carboxymethoxy-5-chloro-phenyl)-5,6-difluoro-3,4-dihydro-1H-isoquinoline-2-carboxylic acid benzooxazol-2-ylmethyl ester]",IC50,[2],0.52 nM
"O=C(O)COc1ccc(Cl)cc1C1c2ccccc2CN1C(=O)CCn1ncc2cccc(F)c21 (single isomer, unassigned) [Example 551, (4-Chloro-2-{2-[3-(7-fluoro-indazol-1-yl)-propionyl]-2,3-dihydro-1H-isoindol-1-yl}-phenoxy)-acetic acid]",IC50,[2],292 nM
Cc1cc(COC(=O)N2CCc3ccccc3C2c2cc(Cl)ccc2OCC(=O)O)nn1C (racemic) [Example 271],IC50,[1],12 nM
O=C(O)COc1ccc(Cl)cc1C1c2ccccc2CCN1C(=O)OCc1ccc(F)cc1 (racemic) [Example 362],IC50,[2],14.3 nM
Cn1cc(CCC(=O)N2CCc3cc(F)ccc3C2c2cc(Cl)ccc2OCC(=O)O)c2ccccc21 (racemic) [Example 434],IC50,[2],33.3 nM
